Results taken from US9169509B2, “Topoisomerase 2b as a predictor of susceptibility to anthracycline-induced cardiotoxicity” (Board of Regents, The University of Texas System, priority 2013, dated 2015).

How the values were obtained:
cardiomyocytes = assay: RT-qPCR of cardiomyocytes isolated from doxorubicin-treated mice; type: in vivo, mouse
Protocol: Isolation of cardiomyocytes from mouse heart was carried out with Langendorff perfusion apparatus according to the standard protocol described above. Total RNA extraction was performed with TRIZOL Reagent (Invitrogen) and purification with RNeasy Mini Kit (QIAGEN) according the manufacturer's protocol. The concentration of RNA obtained was measured using a super-sensitive NanoDrop ND1000 spectrophotometer (Thermo Scientific). Reverse transcription reaction was performed by using the High Capacity RNA-to-cDNA Kit (Applied Biosystem). In brief, cDNA was generated from 1 μg of RNA by RT Enzyme Mix according to the manufacturer's instructions on a PCR thermocycler (S1000TM Thermal Cycler, BIO-RAD, USA). The resulting cDNA was diluted to a final concentration of 50 ng/μl for PCR amplification. Real time quantitative PCR was carried out by using a 7900HT Fast Real-Time PCR System (Applied Biosystems). Mouse TaqMan® Gene primers and probes (FAM, Applied Biosystem), were used in PCR amplification. Mouse GAPDH was used as internal control (VIC®/MGB Probe, Primer Limited, Applied Biosystem). The following TaqMan® Gene primers/probes were used Sdha (Mm01352366_m1), ATP5a1: (Mm00431960_m1), Ndufa3 (Mm01329704_g1), Ppargcla (PGC-1α, Mm01208835_m1), Ppargc1b (PGC-1β, Mm00504720_m1), Esrra (EER, Mm00433143_m1), Trp53inp1 (Mm00458141_m1), Fas: (Mm00433237_m1), Apaf1 (Mm01223702_m1), Bax (Mm00432051_m1), Mdm2 (Mm01233136_m1), and GAPDH: Mouse GAPD (GAPDH) Endogenous Control (VIC®/MGB Probe, Primer Limited). Comparative analyses of each gene were performed using company-provided softwares, SDS2.4 and RQ Manager 1.2.1 (Applied Biosystems). All amplifications were carried out at least in duplicates. The mRNA expression levels of each gene were calculated by using the 2-ΔΔCt (comparative threshold cycle) method, as detailed by the manufacturer (Applied Biosystems).

heart sections [1] = assay: Detection of reactive oxygen species (DHE staining) in heart sections; type: in vivo, mouse
Description: The hearts were isolated on ice, embedded in OCT, snap frozen in liquid nitrogen, sectioned into 5 μm-thick slices, and ROS generation was detected immediately by using dihydroethidium (DHE). Doxorubicin treatment generated ROS in the hearts of Top2b^+/+ mice, but this was reduced by 70% in Top2b^Δ/Δ mice (FIGS. 5b,c).
The hearts were perfused with ice-cold PBS and quickly removed. The hearts were embedded in OCT and snap-frozen in liquid nitrogen. Series of 5 μm-thick slices were sectioned from the heart immediately. Tissue sections were then stained with Dihydroethidium (DHE, Invitrogen) for 15 m, followed by staining with DAPI (1 μg/ml, Sigma). Tissue slides were sealed and examined with an Olympus epifluorescence microscope (Model BX51). The numbers of DHE-positive nuclei and the total nuclei were counted in 5 microscopic fields (400×) per section. Five heart sections from each mouse were counted to determine the percentage of the DHE-positive nuclei.

mouse heart = assay: Cardiac MRI for measuring cardiac function after chronic doxorubicin; settings: mice, doxorubicin 5 mg/kg ip once a week for 5 weeks; decreased from 57% (Example 4, FIG. 13)
Protocol: Before Cre induction, cardiac MRI scan was performed on each mouse to examine the baseline ejection fraction. Cardiomyocyte-specific Cre induction was carried out by treating mice with tamoxifen. […] Doxorubicin treatment (5 mg/kg, i.p., once a week for 5 weeks) was started 7 days after the second MRI scan. Two weeks after the last dose of doxorubicin, a third MRI scan was performed (FIG. 6a).
Every mouse in the EF experiments received 3 MRI scans, i.e., a baseline scan, a second scan 2 weeks after the end of tamoxifen treatment, and a third scan 2 weeks after the last dose of doxorubicin. […] Mice were anesthetized with isoflurane (2.5% in 97.5% O2), and scanned on a 7.0 T Biospec small animal scanner (Bruker Biospin Inc., Billerica, Mass.). Imaging gradients with 60 mm inner diameter (ID) were used with a 35 mm ID linear birdcage-style volume resonator. T1-weighted anatomic reference images were acquired using a three dimension (3D) fast low-angle shot (FLASH) gradient echo sequence. A retrospectively gated FLASH pulse sequence was used to acquire cardiac cine images with excellent contrast between bright blood and adjacent myocardium. To measure volumetric left ventricular ejection fraction (LVEF), at least 6 short axis images were scanned at 1 mm interval from the apex to the base of the heart. End-diastolic (ED) and end-systolic (ES) left ventricular volumes were obtained by the biplane area length method, and LVEF was calculated with the equation: [(ED-ES)/ED]/100.
Two weeks after completion of tamoxifen treatment mice were treated with doxorubicin or drug vehicle. Two cohorts of mice were treated with different schedules. […] To evaluate the chronic effect of doxorubicin on cardiac function, doxorubicin (5 mg/kg, i.p.) was administered once a week for 5 weeks, and cardiac function was examined 2 weeks after the last dose of doxorubicin by using MRI.
The effect of chronic doxorubicin treatment (5 mg/kg, ip, once a week for 5 weeks) was evaluated for its effect on ejection fraction.

heart sections [2] = assay: Detection of apoptosis in heart sections (TUNEL assay); type: in vivo, mouse; settings: after acute doxorubicin treatment
Protocol: Apoptosis was detected by using TUNEL assay on heart sections. Heart harvest, sectioning, and storage were described above. Heart sections were warmed to room temperature before the apoptotic nuclei were stained by using a commercially available kit (In Situ Cell Death Detection Kit, Cat. No. 12156792910, Roche Applied Science). The entire staining procedures were performed according to the manufacturer's instructions. The nuclei were stained with DAPI (Sigma) before the slides were sealed and examined with an Olympus epifluorescence microscope (Model BX51). The apoptotic nuclei and the total nuclei per heart section were counted at 200× magnification. The apoptotic nuclei in 5 heart sections of each mouse were counted and averaged.
The cardio-protective effect of Dex against doxirubin-induced apoptosis was assessed in heart tissues. Dexrazoxane (100 mg/kg) was injected (ip) 8 hrs prior to doxorubicin (25 mg/kg) injection (ip). One group received only doxorubicin and a second group received only dexrazoxane. Hearts were harvested 16 hrs after doxorubicin treatment. The numbers of TUNEL-positive nuclei were counted in five fields in each heart section.

[3] = Top2b+/+ cardiomyocytes, 16 hrs after doxorubicin 25 mg/kg i.p.
[4] = Top2b+/+ hearts, chronic doxorubicin 5 mg/kg once a week for 5 weeks

COc1cccc2c1C(=O)c1c(O)c3c(c(O)c1C2=O)C[C@@](O)(C(=O)CO)C[C@@H]3O[C@H]1C[C@H](N)[C@H](O)[C@H](C)O1 [doxorubicin]
Transcript of Apaf1, Bax, and Fas (apoptosis pathway genes) (cardiomyocytes; [3]): increases
Up-regulation of the transcript encoding p53DINP1 (TP53INP1) (cardiomyocytes; [3]): 200 fold
Genes involved in mitochondrial biogenesis (RT-qPCR) (cardiomyocytes; [4]): Reduction of genes involved in mitochondrial biogenesis
Transcripts of Ndufa3, Sdha and Atp5a (electron transport chain) (cardiomyocytes; doxorubicin treated Top2b+/+ cardiomyocytes, 72 h, much less so in Top2bΔ/Δ): decreased
Erra transcript (cardiomyocytes; doxorubicin-treated wild type cardiomyocytes, 72 h, not in Top2b-deleted): down-regulated
Reduction of doxorubicin-generated ROS in Top2bΔ/Δ mice versus Top2b+/+ mice (heart sections [1]; 16 hrs after doxorubicin 25 mg/kg): 70%
ROS generation (DHE) (heart sections [1]; [4]): generation of ROS
ROS generation in the hearts (DHE-positive nuclei) (heart sections [1]; Top2b+/+ mice, 16 hrs after doxorubicin 25 mg/kg): generated ROS
Ejection fraction after treatment (mouse heart): 45%
Reduction of TUNEL-positive nuclei in hearts of Top2bΔ/Δ mice compared with Top2b+/+ mice (heart sections [2]): 70%
